Assay results as given in patent US9302999B2, “Substituted triazoles as herbicides” (E. I. DU PONT DE NEMOURS AND COMPANY, priority 2012, dated 2016).
Where two headings read alike, the source gives them in different places.

Experiments:
Format in all cases: in vivo
[1] = system: chickweed (common chickweed, Stellaria media); experiment: Test C postemergence: chickweed
Excerpt: (§1) At the same time, plants selected from these crop and weed species and also barley (winter barley, Hordeum vulgare), canarygrass (Phalaris minor), chickweed (common chickweed, Stellaria media) windgrass (Apera spica-venti) and deadnettle (henbit deadnettle, Lamium amplexicaule) were planted in pots containing Redi-Earth® planting medium (Scotts Company, 14111 Scottslawn Road, Marysville, Ohio 43041) comprising spaghnum peat moss, vermiculite, wetting agent and starter nutrients and treated with postemergence applications of test chemicals formulated in the same manner. Plants ranged in height from 2 to 18 cm (1- to 4-leaf stage) for postemergence treatments.
(§2) Treated plants and controls were maintained in a greenhouse for 13 to 15 days, after which time all species were compared to controls and visually evaluated. Plant response ratings, summarized in Table C, are based on a scale of 0 to 100 where 0 is no effect and 100 is complete control. A dash (-) response means no test result.

[2] = system: blackgrass (Alopecurus myosuroides); experiment: Test C pre-/postemergence: blackgrass
Outline: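 Visual injury scored 0–100 (100 = complete control) against untreated controls after 13–15 greenhouse days. Surfactant-containing solvent formulations applied either to soil after sowing (loam/sand) or over 1- to 4-leaf plants, 2–18 cm tall.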

[3] = system: wheat (Triticum aestivum); experiment: Test A pre-/postemergence: wheat; conditions: Triticum aestivum, 240 h; for plant injury at 125 g/ha: 125 g ai/ha; for plant injury at 500 g/ha: 500 g ai/ha
Outline: (§3)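 Seeds were sown in loam/sand blend and sprayed preemergence (directed soil spray) and, simultaneously, postemergence at 2–10 cm, one- to two-leaf stage, using compounds in non-phytotoxic solvent with surfactant. After ~10 days in greenhouse, injury was rated visually versus untreated controls, 0 (no effect) to 100 (complete control).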

[4] = system: ragweed (common ragweed, Ambrosia elation); experiment: Test C pre-/postemergence: ragweed; conditions: Postemergence
Excerpt: (§4) Seeds of plant species selected from blackgrass (Alopecurus myosuroides), bromegrass, downy (downy bromegrass, Bromus tectorum), foxtail, green (green foxtail, Setaria viridis), ryegrass, Italian (Italian ryegrass, Lolium multiflorum), winter wheat (Triticum aestivum), wild oat (Avena fatua), galium (catchweed bedstraw, Galium aparine), bermudagrass (Cynodon dactylon), surinam grass (Brachiaria decumbens), cocklebur (common cocklebur, Xanthium strumarium), corn (Zea mays), large crabgrass (Digitaria sanguinalis), woolly cupgrass (Eriochloa villosa), foxtail, giant (giant foxtail, Setaria faberii), goosegrass (Eleusine indica), johnsongrass (Sorghum halepense), kochia (Kochia scoparia), lambsquarters (Chenopodium album), morningglory (Ipomoea coccinea), nightshade (eastern black nightshade, Solanum ptycanthum), nutsedge, yellow (yellow nutsedge, Cyperus esculentus), pigweed (Amaranthus retroflexus), ragweed (common ragweed, Ambrosia elation), soybean (Glycine max), common (oilseed) sunflower (Helianthus annuus), Russian thistle (Salsola kali) and velvetleaf (Abutilon theophrasti) were planted into a blend of loam soil and sand and treated preemergence with test chemicals formulated in a non-phytotoxic solvent mixture which included a surfactant.
as §1, §2

[5] = system: pigweed (Amaranthus retroflexus); experiment: Test A pre-/postemergence: pigweed; conditions: Amaranthus retroflexus, 240 h; for pest or weed control at 125 g/ha: 125 g ai/ha; for pest or weed control at 500 g/ha: 500 g ai/ha
Outline: as §3

[6] = system: velvetleaf (Abutilon theophrasti); experiment: Test A pre-/postemergence: velvetleaf; conditions: Abutilon theophrasti, 240 h; for pest or weed control at 125 g/ha: 125 g ai/ha; for pest or weed control at 500 g/ha: 500 g ai/ha
Outline: as §3

[7] = system: morningglory (Ipomoea coccinea); experiment: Test C pre-/postemergence: morningglory
Excerpt: as §4, §1, §2

[8] = system: crabgrass, large (large crabgrass, Digitaria sanguinalis); experiment: Test A pre-/postemergence: crabgrass, large; conditions: Digitaria sanguinalis, 240 h; for pest or weed control at 125 g/ha: 125 g ai/ha; for pest or weed control at 500 g/ha: 500 g ai/ha
Outline: as §3

[9] = system: foxtail, giant (giant foxtail, Setaria faberii); experiment: Test A pre-/postemergence: foxtail, giant; conditions: Setaria faberi, 240 h; for pest or weed control at 125 g/ha: 125 g ai/ha; for pest or weed control at 500 g/ha: 500 g ai/ha
Outline: as §3

[10] = 16 g ai/ha, scale 0 to 100, 0 no effect, 100 complete control
[11] = 31 g ai/ha, scale 0 to 100 (0 no effect, 100 complete control)
[12] = 62 g ai/ha, scale 0 to 100 (0 no effect, 100 complete control)
[13] = 125 g ai/ha, scale 0 to 100, 0 no effect, 100 complete control
[14] = Postemergence, 16 g ai/ha, scale 0 to 100, 0 no effect, 100 complete control
[15] = Postemergence, 31 g ai/ha, scale 0 to 100 (0 no effect, 100 complete control)
[16] = Postemergence, 62 g ai/ha, scale 0 to 100 (0 no effect, 100 complete control)
[17] = Postemergence, 125 g ai/ha, scale 0 to 100, 0 no effect, 100 complete control
[18] = Preemergence, 16 g ai/ha, scale 0 (no effect) to 100 (complete control)
[19] = Preemergence, 31 g ai/ha, scale of 0 to 100, 0 is no effect, 100 is complete control
[20] = Preemergence, 125 g ai/ha, scale 0 to 100, 0 no effect, 100 complete control

COc1nn(-c2ccc(C(F)(F)F)cc2)nc1Cc1ccnc(C(F)(F)F)c1 [Compound 15, 4-[[5-methoxy-2-[4-(trifluoromethyl)phenyl]-2H-1,2,3-triazol-4-yl]methyl]-2-(trifluoromethyl)pyridine]
Plant response rating, Chickweed [1, 10]: 55
Plant response rating, Chickweed [1, 11]: 55
Plant response rating, Chickweed [1, 12]: 70
Plant response rating, Chickweed [1, 13]: 75
Plant response rating, Blackgrass [2, 14]: 20
Plant response rating, Blackgrass [2, 15]: 30
Plant response rating, Blackgrass [2, 16]: 60
Plant response rating, Blackgrass [2, 17]: 80
Plant response rating, Blackgrass [2, 18]: 15
Plant response rating, Blackgrass [2, 19]: 50
Plant response rating, Blackgrass ([2]; Preemergence, 62 g ai/ha, scale 0 to 100, 0 no effect, 100 complete control): 85
Plant response rating, Blackgrass [2, 20]: 95
plant injury at 125 g/ha ([3]; post-emergence, Postemergence, 0 to 100 scale, 0 is no effect, 100 is complete control, read-out: Wheat plant response rating): 30%
plant injury at 500 g/ha ([3]; post-emergence, Postemergence, visual rating on 0 to 100 scale (0 no effect, 100 complete control), approximately ten days, read-out: Wheat plant response rating): 50%
plant injury at 125 g/ha ([3]; pre-emergence, Preemergence, 0 to 100 scale (0 no effect, 100 complete control), read-out: Plant response rating, Wheat): 30%
plant injury at 500 g/ha ([3]; pre-emergence, Preemergence, 0 to 100 scale, 0 is no effect, 100 is complete control, read-out: Plant response rating, Wheat): 50%
Plant response rating, Ragweed [4, 10]: 45
Plant response rating, Ragweed [4, 11]: 60
Plant response rating, Ragweed [4, 12]: 60
Plant response rating, Ragweed [4, 13]: 70
pest or weed control at 125 g/ha ([5]; post-emergence, Postemergence, 0 to 100 scale, 0 is no effect, 100 is complete control, read-out: Pigweed plant response rating): 100%
pest or weed control at 500 g/ha ([5]; post-emergence, Postemergence, visual rating on 0 to 100 scale (0 no effect, 100 complete control), approximately ten days, read-out: Pigweed plant response rating): 100%
pest or weed control at 125 g/ha ([5]; pre-emergence, Preemergence, 0 to 100 scale (0 no effect, 100 complete control), read-out: Plant response rating, Pigweed): 100%
pest or weed control at 500 g/ha ([5]; pre-emergence, Preemergence, 0 to 100 scale, 0 is no effect, 100 is complete control, read-out: Plant response rating, Pigweed): 100%
pest or weed control at 125 g/ha ([6]; post-emergence, Postemergence, 0 to 100 scale, 0 is no effect, 100 is complete control, read-out: Velvetleaf plant response rating): 100%
pest or weed control at 500 g/ha ([6]; post-emergence, Postemergence, visual rating on 0 to 100 scale (0 no effect, 100 complete control), approximately ten days, read-out: Velvetleaf plant response rating): 100%
pest or weed control at 125 g/ha ([6]; pre-emergence, Preemergence, 0 to 100 scale (0 no effect, 100 complete control), read-out: Plant response rating, Velvetleaf): 70%
pest or weed control at 500 g/ha ([6]; pre-emergence, Preemergence, 0 to 100 scale, 0 is no effect, 100 is complete control, read-out: Plant response rating, Velvetleaf): 80%
Plant response rating, Morningglory [7, 14]: 45
Plant response rating, Morningglory [7, 15]: 75
Plant response rating, Morningglory [7, 16]: 75
Plant response rating, Morningglory [7, 17]: 90
Plant response rating, Morningglory [7, 18]: 5
Plant response rating, Morningglory [7, 19]: 5
Plant response rating, Morningglory ([7]; Preemergence, 62 g ai/ha, scale of 0 to 100, 0 is no effect, 100 is complete control): 15
Plant response rating, Morningglory [7, 20]: 45
pest or weed control at 125 g/ha ([8]; post-emergence, Postemergence, 0 to 100 scale, 0 is no effect, 100 is complete control, read-out: Crabgrass, Large plant response rating): 90%
pest or weed control at 500 g/ha ([8]; post-emergence, Postemergence, visual rating on 0 to 100 scale (0 no effect, 100 complete control), approximately ten days, read-out: Crabgrass, Large plant response rating): 90%
pest or weed control at 125 g/ha ([8]; pre-emergence, Preemergence, 0 to 100 scale (0 no effect, 100 complete control), read-out: Plant response rating, Crabgrass, Large): 100%
pest or weed control at 500 g/ha ([8]; pre-emergence, Preemergence, 0 to 100 scale, 0 is no effect, 100 is complete control, read-out: Plant response rating, Crabgrass, Large): 100%
pest or weed control at 125 g/ha ([9]; post-emergence, Postemergence, 0 to 100 scale, 0 is no effect, 100 is complete control, read-out: Foxtail, Giant plant response rating): 90%
pest or weed control at 500 g/ha ([9]; post-emergence, Postemergence, visual rating on 0 to 100 scale (0 no effect, 100 complete control), approximately ten days, read-out: Foxtail, Giant plant response rating): 90%
pest or weed control at 125 g/ha ([9]; pre-emergence, Preemergence, 0 to 100 scale (0 no effect, 100 complete control), read-out: Plant response rating, Foxtail, Giant): 100%
pest or weed control at 500 g/ha ([9]; pre-emergence, Preemergence, 0 to 100 scale, 0 is no effect, 100 is complete control, read-out: Plant response rating, Foxtail, Giant): 100%
